The values below come from ChEMBL document CHEMBL1144454, “Design, synthesis, and biological activities of pyrrolylethanoneamine derivatives, a novel class of monoamine oxidases inhibitors” (J Med Chem, 2005).

In test [1] the target is Amine oxidase [flavin-containing] A (Bos taurus) (UniProt P21398). The test is described as follows: Inhibitory concentbovineion for bovine Monoamine oxidase A.
Test [2] concerns the target Amine oxidase [flavin-containing] B (Bos taurus) (UniProt P56560).
Test [3] can be described thus: Selectivity for bovine Monoamine oxidase A as ratio of Ki(MAO-B)/Ki(MAO-A).

Chain of Amine oxidase [flavin-containing] B (Bos taurus) (P56560 whole entry, looked up): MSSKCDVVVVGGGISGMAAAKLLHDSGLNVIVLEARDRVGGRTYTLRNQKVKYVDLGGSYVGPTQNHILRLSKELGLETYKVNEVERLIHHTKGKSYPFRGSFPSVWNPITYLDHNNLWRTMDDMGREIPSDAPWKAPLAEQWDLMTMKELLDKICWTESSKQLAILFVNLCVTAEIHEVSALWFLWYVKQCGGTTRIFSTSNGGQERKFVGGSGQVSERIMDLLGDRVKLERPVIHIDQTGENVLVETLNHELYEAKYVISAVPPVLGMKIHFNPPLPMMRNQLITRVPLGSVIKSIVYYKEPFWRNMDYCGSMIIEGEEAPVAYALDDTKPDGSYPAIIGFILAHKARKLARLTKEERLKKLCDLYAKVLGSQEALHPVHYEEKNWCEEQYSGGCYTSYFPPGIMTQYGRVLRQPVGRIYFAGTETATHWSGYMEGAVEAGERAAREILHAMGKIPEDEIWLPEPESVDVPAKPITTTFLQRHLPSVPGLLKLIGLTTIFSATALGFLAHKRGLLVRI

For `Cn1cccc1C(O)C(c1ccccc1)N1CCCCC1` (racemic; form 2) [listing 1 of 2 here], the results for the Ki in test [1] and in test [2] were 1 µM and 140 µM, respectively.
With `Cn1cccc1C(=O)[C@@H](c1ccccc1)N1CCCCC1`, in test [1], the Ki was 0.01 µM.
As for `Cn1cccc1C(O)CN1CCCCC1` (stereo not drawn), the Ki in test [1] was 0.51 µM; in test [2], 23.9 µM. Further, the A-selectivity in test [3] was 47.
In the case of `Cn1cccc1C(=O)C(c1ccccc1)N1CCCC1` (racemic), the Ki was determined as 0.0075 µM in test [1] and 600 µM in test [2].
Consider `Cn1cccc1C(=O)C(c1ccccc1)N1CCN(Cc2ccccc2)CC1` (stereo not drawn), for which the Ki worked out at 0.93 µM in test [1] and 10 µM in test [2]. Also, the A-selectivity in test [3] was determined as 11.
Regarding `Cn1cccc1C(O)C(c1ccccc1)N1CCCCC1` (single isomer, unassigned; form 1) [listing 1 of 2 here], the A-selectivity in test [3] was more than 19.
For the compound `Cn1cccc1C(O)C(c1ccccc1)N1CCCCC1` (single isomer, unassigned; form 1) [listing 2 of 2 here], the Ki in test [1] is 0.52 µM; in test [2], more than 10 µM.
Take `CCOc1ccc(NC(C(=O)c2cccn2C)c2ccccc2)cc1` (stereo not drawn): the Ki was 0.83 µM in test [1] and more than 100 µM in test [2]. Also, in test [3], the A-selectivity is more than 121.
Take `Cn1cccc1C(O)C(c1ccccc1)N1CCCCC1` (single isomer, unassigned; form 2) [listing 1 of 2 here]: in test [3], the A-selectivity worked out at 0.18.
Consider `Cn1cccc1C(=O)[C@@H](c1ccccc1)N1CCSCC1`, for which the results for the Ki in test [1] and in test [2] were 0.076 µM and 400 µM, respectively. Moreover, the A-selectivity in test [3] stood at 5260.
For `CC(C(=O)c1cccn1C)N1CCCCC1` (stereo not drawn), the Ki came to 0.038 µM in test [1] and 36 µM in test [2].
Consider `Cn1cccc1C(=O)C(c1ccccc1)N1CCSCC1` (stereo not drawn), for which the Ki in test [1] is 0.1 µM; in test [2] it was more than 100 µM. Also, the A-selectivity in test [3] was more than 1000.
For `Cn1cccc1C(=O)C(c1ccccc1)N1CCOCC1` (stereo not drawn) the same measures were 0.35 µM, more than 100 µM and more than 286.
For the compound `CN(C)C(C(=O)c1cccn1C)c1ccccc1` (stereo not drawn), the inhibition constant (Ki) in test [1] worked out at 1.75 µM; in test [2] it was 875 µM. For the same compound, in test [3], the A-selectivity turned out to be 500.
In the case of `Cn1cccc1C(=O)[C@@H](c1ccccc1)N1CCCC1`, the Ki in test [1] came to 0.0035 µM; in test [2], 700 µM.
As for `Cn1cccc1C(O)C(c1ccccc1)N1CCCCC1` (racemic; form 2) [listing 2 of 2 here], the A-selectivity in test [3] was determined as 140.
Same read-out and setting: as for `Cn1cccc1C(O)C(c1ccccc1)N1CCCCC1` (stereo in doubt) [listing 1 of 2 here], the figure is 77.
On to `Cn1cccc1C(O)C(c1ccccc1)N1CCCCC1` (single isomer, unassigned; (-)) [listing 1 of 2 here], for which the Ki came out at 55 µM in test [1] and 17.2 µM in test [2].
On the same counts, the results for `Cn1cccc1C(O)C(c1ccccc1)N1CCCCC1` (single isomer, unassigned; form 2) [listing 2 of 2 here] are 7 µM and 1.24 µM.
Regarding `Cn1cccc1C(=O)[C@H](c1ccccc1)N1CCCCC1`, the Ki came out at 0.1 µM in test [1] and 410 µM in test [2]. Moreover, the A-selectivity in test [3] is 4100.
As to `Cn1cccc1C(O)C(c1ccccc1)N1CCCCC1` (single isomer, unassigned; (-)) [listing 2 of 2 here], the A-selectivity in test [3] came out at 0.31.
In the case of `Cn1cccc1C(=O)C(c1ccccc1)N1CCCCC1` (racemic), the Ki in test [1] amounted to 0.096 µM; in test [2], 500 µM. Also, the A-selectivity in test [3] came out at 5210.
As to `Cn1cccc1C(O)C(c1ccccc1)N1CCCCC1` (stereo in doubt) [listing 2 of 2 here], the Ki in test [1] amounted to 0.6 µM; in test [2] it was 46 µM.
`CN1CCN(C(C(=O)c2cccn2C)c2ccccc2)CC1` (stereo not drawn): the inhibitory constant (Ki) in test [1] was 0.347 µM; in test [2], more than 100 µM. Besides, the A-selectivity in test [3] was more than 288.
As for `Cn1cccc1C(O)C(c1ccccc1)N1CCCCC1` (racemic; form 1) [listing 1 of 2 here], the Ki in test [1] was determined as 31 µM; in test [2], 9.22 µM.
On to `Cn1cccc1C(=O)[C@H](c1ccccc1)N1CCSCC1`, for which the inhibitory constant (Ki) was 0.082 µM in test [1] and 100 µM in test [2]. Besides, in test [3], the A-selectivity worked out at 1220.
With `Cn1cccc1C(O)C(c1ccccc1)N1CCCCC1` (racemic; form 1) [listing 2 of 2 here], in test [3], the A-selectivity stood at 0.29.
On to `Cn1cccc1C(=O)CN1CCCCC1`, for which the Ki in test [1] came to 0.007 µM; in test [2], 15 µM.
On to `Cn1cccc1C(=O)C(N)c1ccccc1` (stereo not drawn), for which the Ki in test [1] was 0.095 µM; in test [2], 42 µM. Moreover, the A-selectivity in test [3] was 442.
On the same counts, the results for `Cn1cccc1C(=O)C(c1ccccc1)N1C(=O)c2ccccc2C1=O` (stereo not drawn) are 0.81 µM, more than 100 µM and more than 123.
For the compound `Cn1cccc1C(=O)[C@H](c1ccccc1)N1CCCC1`, the results for the Ki in test [1] and in test [2] were 0.0095 µM and 500 µM, respectively.

The term Ki denotes the equilibrium dissociation constant of an inhibitor or competing ligand from its target. Read a high Ki as a looser hold on the target.
